One assay concerns K562. Description: Cytotoxicity against human K562 cells assessed as cell growth inhibition after 72 hrs by MTT assay. To be noted: K562, 72 h. Format: functional, cell-based. (In general: Tetrazolium dyes change colour on reduction, which living cells bring about.)
Assay [1] can be described thus: Cytotoxicity against human HL60 cells assessed as cell growth inhibition after 72 hrs by MTT assay. Format: functional, cell-based. To be noted: HL-60, 72 h.
The next assay concerns Jurkat. Briefly: Cytotoxicity against human Jurkat cells assessed as cell growth inhibition after 72 hrs by MTT assay. Format: functional, cell-based.
For a further assay, the system named is Raji. Description: Cytotoxicity against human Raji cells assessed as cell growth inhibition after 72 hrs by MTT assay. Format: functional, cell-based.
A further assay deals with MCF7. Briefly: Cytotoxicity against human MCF7 cells assessed as cell growth inhibition after 72 hrs by MTT assay. Format: functional, cell-based. To be noted: MCF7, 72 h.
Assay [2] concerns MDA-MB-231. Description: Cytotoxicity against human MDA-MB-231 cells assessed as cell growth inhibition after 72 hrs by MTT assay. Format: functional, cell-based. To be noted: MDA-MB-231, 72 h.
The subject of the next assay is HeLa. Description: Cytotoxicity against human HeLa cells assessed as cell growth inhibition after 72 hrs by MTT assay. Format: functional, cell-based.
Assay [3] relates to A549. Briefly: Cytotoxicity against human A549 cells assessed as cell growth inhibition after 72 hrs by MTT assay. Format: functional, cell-based. To be noted: A549, 72 h.
A further assay concerns MRC5. Briefly: Cytotoxicity against human MRC5 cells assessed as cell growth inhibition after 72 hrs by MTT assay. To be noted: MRC5, 72 h. Format: functional, cell-based.
The test system of assay [4] is A549. Description: Potency index, ratio of Doxorubicin IC50 to ratio of compound IC50 for human A549 cells. Format: functional.
For assay [5], the system named is MDA-MB-231. Description: Potency index, ratio of Doxorubicin IC50 to ratio of compound IC50 for human MDA-MB-231 cells. Format: functional.

In general, IC50 refers to the concentration at which inhibition is half-maximal.

As for `CC(=O)O[C@@H]1C=CC(=O)O[C@@H]1[C@@H](COC(=O)/C=C/c1ccccc1)OC(C)=O`, the IC50 in the assay with K562 was 0.28 µM; in [1], 24.6 µM; in the assay on Jurkat, 0.25 µM; in the assay on Raji, 11.2 µM; in the assay with MCF7, 16 µM; in the assay with MDA-MB-231 [2] it was 1.46 µM. The IC50 is 0.21 µM with HeLa, 2.02 µM in the assay on A549 [3] and > 100 µM in the assay on MRC5. The “Ratio IC50” value in the assay with A549 [4] was 2.5.

Regarding `COc1cccc2c1C(=O)c1c(O)c3c(c(O)c1C2=O)C[C@@](O)(C(=O)CO)C[C@@H]3O[C@H]1C[C@H](N)[C@H](O)[C@H](C)O1` [DOXORUBICIN], the IC50 in assay [1] was 0.92 µM.

Turning to `CC(=O)O[C@@H]1C=CC(=O)O[C@@H]1[C@@H](COC(=O)c1ccccc1)OC(C)=O`, the IC50 in the assay on K562 was determined as 7.65 µM; in [1] it was 1.21 µM; in the assay on Jurkat, 14.2 µM; in the assay with Raji, 36.9 µM; with MCF7, 26.1 µM; in the assay with MDA-MB-231 [2], 2.25 µM. Also, the IC50 in the assay on HeLa is 7.32 µM; in the assay on A549 [3] it was 16.3 µM; with MRC5, > 100 µM.

For `COc1cccc(C(=O)OC[C@@H](OC(C)=O)[C@H]2OC(=O)C=C[C@H]2OC(C)=O)c1`, the IC50 with K562 is 2.69 µM; in assay [1], 0.89 µM; in the assay with Jurkat it was 8.31 µM; in the assay with Raji, 25.6 µM; in the assay on MCF7, 4.71 µM; in the assay on MDA-MB-231 [2] it was 7.46 µM. The IC50 with HeLa was determined as 1.95 µM; in the assay on A549 [3], 11 µM; in the assay on MRC5, 91.3 µM.

`CC(=O)O[C@@H]1C=CC(=O)O[C@@H]1[C@@H](COC(=O)c1c(Cl)cc(Cl)cc1Cl)OC(C)=O`: the IC50 with K562 turned out to be 1.02 µM; in assay [1], 36.2 µM; with Jurkat, 6.25 µM; in the assay on Raji, 11.2 µM; in the assay with MCF7 it was 0.62 µM; in the assay on MDA-MB-231 [2] it was 0.02 µM. The figures for the IC50 in the assay with HeLa, in the assay with A549 [3] and with MRC5 were 14 µM, 4.23 µM and 45.7 µM, respectively. Moreover, the “Ratio IC50” value in the assay on MDA-MB-231 [5] was 4.5.
